This is an account of results in patent publication US3985742A, “Process for preparing 3-hydroxymethyl cephalosporins” (priority 1975, dated 1976).

Series [1] has as its system Proteus vulgaris. As to the kind of experiment: disc-plate bioassay using Proteus vulgaris. Conditions: for zone of inhibition at 100 µg/mL: read-out: disc zone size.
Series [2] concerns Alcaligenes faecalis MB-9. Briefly: bacterial inactivation by washed bacterial cells. Conditions: start 4 mg/ml.
The test system of series [3] is Alcaligenes viscosus MB-12. Briefly: bacterial inactivation by washed bacterial cells. Conditions: 4 hour; assayed on B. subtilis (MB-964); start 4 mg/ml.
The test system of series [4] is Proteus mirabilis 241. As to the kind of experiment: bacterial inactivation. Conditions: 4 hours; assayed on B. subtilis (MB-964). The procedure: (§1) These cultures are: Escherichia coli 236, Proteus morganii 251, Proteus morganii 356 and Proteus mirabilis 241. […] In conducting the assay, individual mixtures of the organisms and one of the antibiotics were sampled after four hours incubation and assayed for residual antibiotic activity. The procedure is the same assay method as described above against Alcaligenes faecalis MB-9 and A. viscosus MB-12.

The subject of series [5] is Proteus morganii 251. Briefly: bacterial inactivation. Conditions: 4 hours; assayed on B. subtilis (MB-964). How it is done: as §1
Series [6] has as its system Escherichia coli 236. As to the kind of experiment: bacterial inactivation. Conditions: 4 hours; assayed on B. subtilis (MB-964). How it is done: as §1
Series [7] relates to Proteus morganii 356. As to the kind of experiment: bacterial inactivation. Conditions: 4 hours; assayed on B. subtilis (MB-964). The procedure:
as §1

Series [8] has as its system Aerobacter cloacae MB-2646. Briefly: enzymatic inactivation by cell-free extract. Conditions: for Antibiotic Activity Remaining: start 250 μg/ml. The procedure: The ability of Antibiotic 810A and cephalosporin C to withstand the degradative effect of the culture Aerobacter cloacae (MB-2646) was also determined. This culture is gram-negative and resistant to cephalosporin C. […] The source of the inactivating substance is a 1:160 dilution of the filtrate of an 18 hour 37° C. shake culture of Aerobacter cloacae MB-2646 in nutrient broth containing 0.2% yeast extract. Table XIV, infra, indicates the percent inactivation of Antibiotic 810A, cephalothin, cephaloridine and cephalosporin C on Vibrio percolans (MB-1272) via this method:
Using the same assay procedure as described above, Table XV, infra, indicates the relative resistance of Antibiotic 810A to enzymatic inactivation by Aerobacter cloacae. The starting concentration is 250 μg./ml. Results are expressed in μg./ml.

The subject of series [9] is Escherichia coli W-MB-60. As to the kind of experiment: disc zone bioassay of derivatives. In kind it is cell-based. Conditions: WMB60, 100γ/ml, read-out: disc zone size. The text has this: (§2) Bioassay: the disc zone sizes in the following table are expressed in mm. for 100γ/ml of antibiotic.
(§3) Bioassay: The disc zone sizes in the following table are expressed in mm. for equal concentrations of antibiotic.

Series [10] concerns Salmonella gallinarum MB-1287. Briefly: disc zone bioassay of derivatives. It counts as cell-based. Conditions: Salmonella enterica, 100γ/ml, read-out: disc zone size.
Excerpt: (§4) Bioassay: the disc zone sizes in the following table are expressed in mm. for equal concentrations of antibiotic.
as §3

Series [11] relates to Pseudomonas stutzeri MB-1231. Briefly: disc zone bioassay of derivatives. It counts as cell-based. Conditions: Stutzerimonas stutzeri, MB1231, 100γ/ml; read-out: disc zone size.
Excerpt: as §2, §4, §3

The test system of series [12] is Vibrio percolans MB-1272. As to the kind of experiment: disc-plate bioassay using Vibrio percolans. Conditions: Comamonas terrigena; for zone of inhibition at 100 µg/mL: MB1272, read-out: disc zone size, 100γ/ml.
Series [13] deals with Proteus morganii 356. As to the kind of experiment: mouse protection test, clinical isolate. In kind it is in vivo, mice. Conditions: subcutaneous × 2 doses. The text has this:
In addition to the aforementioned in vivo trials of the product, a clinical isolate of Proteus morganii 356 which is resistant to cephalosporins and capable of degrading cephalosporin C, was employed in a mouse protection test performed in the same manner as reported above.

Series [14] concerns Proteus morganii 3202. Briefly: mouse protection test. It counts as in vivo, mice. Also noted: dose or concentration left out as unconfirmed. Conditions: × 2 doses, subcutaneous. The procedure:
Methods: The method employed in this characterization is as follows: Female white Swiss mice, average weight 20-23 grams, were infected intraperitoneally with 3-20 times the number of organisms calculated to be lethal for 50% of the infected control animals (3-20 LD50 doses). At the time of infection and again 6 hours later, therapy was given by the designated route. Controls of the virulence of the culture and the toxicity of the antibiotic for uninfected mice were included in the tests. Seven days after infection the test was considered complete and the amount of the antibiotic (I) that would be required to protect 50% of the infected and treated animals was calculated by the method of Knudsen and Curtis; J. Amer. Stat. Assoc. Vol. 42: page 282 (1947).
The method employed in these studies is the same as described above with regard to the in vivo characterization of 810A. The results of these tests are described below in Table XIb:
Administration was by subcutaneous injection. At the completion of the test period, usually seven days after administration, the amount of product required to protect 50% of the mice (ED50) from this otherwise fatal injection was calculated: […]

Series [15] deals with Pseudomonas aeruginosa. Briefly: disc-plate agar diffusion, antibacterial spectrum. In kind it is cell-based. Conditions: 166 μg/ml, 25 °C, 7 mm = no zone, read-out: Inhibition Zone Diameter. For orientation: Agar diffusion results depend on both activity and mobility in agar.
The subject of series [16] is Escherichia coli, Oxytetracycline-resistant. Briefly: cross-resistance, disc-plate agar diffusion. Conditions: read-out: Inhibition Zone Diameter. It counts as cell-based.
In series [17] the test system is Serratia marcescens. As to the kind of experiment: disc-plate agar diffusion, antibacterial spectrum. It counts as cell-based. Conditions: 166 μg/ml, 25 °C, 7 mm = no zone, read-out: Inhibition Zone Diameter.
In series [18] the test system is Brucella bronchiseptica. As to the kind of experiment: microbe, parasite or virus in culture. It counts as cell-based. Conditions: Bordetella bronchiseptica, read-out: Inhibition Zone Diameter.
The test system of series [19] is Staphylococcus aureus. Briefly: disc-plate agar diffusion, antibacterial spectrum. It counts as cell-based. Conditions: 166 μg/ml, 25 °C, 7 mm = no zone, read-out: Inhibition Zone Diameter.
Series [20] relates to Proteus vulgaris. As to the kind of experiment: disc-plate agar diffusion, antibacterial spectrum. In kind it is cell-based. Conditions: 166 μg/ml, 37 °C, 7 mm = no zone, read-out: Inhibition Zone Diameter.
The test system of series [21] is Staphylococcus aureus (Streptomycin-Streptothricin-resistant). As to the kind of experiment: disc-plate agar diffusion, antibacterial spectrum. In kind it is cell-based. Conditions: read-out: Inhibition Zone Diameter.
The test system of series [22] is Escherichia coli, Chloramphenicol-resistant. Briefly: cross-resistance, disc-plate agar diffusion. In kind it is cell-based. Conditions: read-out: Inhibition Zone Diameter.
In series [23] the test system is Sarcina lutea. Briefly: disc-plate agar diffusion, antibacterial spectrum. In kind it is cell-based. Conditions: Micrococcus luteus; 166 μg/ml; 25 °C; 7 mm = no zone; read-out: Inhibition Zone Diameter.
In series [24] the test system is Streptococcus faecalis. As to the kind of experiment: disc-plate agar diffusion, antibacterial spectrum. In kind it is cell-based. Conditions: Enterococcus faecalis; 166 μg/ml; 37 °C; 7 mm = no zone; read-out: Inhibition Zone Diameter.
Series [25] deals with Escherichia coli, Neomycin-resistant. As to the kind of experiment: cross-resistance, disc-plate agar diffusion. It counts as cell-based. Conditions: read-out: Inhibition Zone Diameter.
The test system of series [26] is Vibrio percolans. Briefly: disc-plate agar diffusion, antibacterial spectrum. In kind it is cell-based. Conditions: Comamonas terrigena; 166 μg/ml; 27 °C; 7 mm = no zone; read-out: Inhibition Zone Diameter.
The subject of series [27] is Escherichia coli, Streptothricin-resistant. As to the kind of experiment: cross-resistance, disc-plate agar diffusion. In kind it is cell-based. Conditions: read-out: Inhibition Zone Diameter.
The subject of series [28] is Escherichia coli, Viomycin-resistant. As to the kind of experiment: cross-resistance, disc-plate agar diffusion. It counts as cell-based. Conditions: read-out: Inhibition Zone Diameter.
Series [29] concerns Escherichia coli W-MB-60. Briefly: special effects spectrum, disc-plate agar diffusion. In kind it is cell-based. Conditions: WMB60, 166 μg/ml, read-out: Inhibition Zone Diameter.
In series [30] the test system is Alcaligenes faecalis. As to the kind of experiment: disc-plate agar diffusion, antibacterial spectrum. Conditions: 166 μg/ml, 37 °C, 7 mm = no zone, read-out: Inhibition Zone Diameter. In kind it is cell-based.
The mark [31] stands for this setting: 2 hour, assayed on V. percolans (MB-1272).
Where [32] appears, read: 2 hour, assayed on B. subtilis 964.
Setting [33] is: 2 hour, assayed on V. percolans 1272.

SMILES strings stand for the structures. Counter-ions that a name gives are not always drawn. Like-named read-outs stand apart in the source and are kept apart here.

Turning to `COC(=Cc1ccc(O)cc1)C(=O)OCC1=C(C(=O)O)N2C(=O)[C@](NC(=O)CCC[C@@H](N)C(=O)O)(OC)[C@H]2SC1` [7β-(D-5-amino-5-carboxyvaleramido)-3-(α-methoxy-p-hydroxycinnamoyloxymethyl)-7-methoxy-3-cephem-4-carboxylic acid], in series [1] (read-out: concentration giving a 25 mm zone (bioassay potency)), the IC (25 mm zone) amounted to 167 µg/mL.
Consider `CC(=O)OCC1=C(C(=O)O)N2C(=O)[C@@H](NC(=O)CCC[C@@H](N)C(=O)O)[C@H]2SC1` [Cephalosporin C, reference compound], for which the “Percent Inactivation After Incubation With Washed Bacterial Cells” value in series [2] (3 hour, assayed on B. subtilis (MB-964)) is reported as greater than 99%; in series [2] (3 hour, assayed on V. percolans (MB-1272)) it was greater than 99%; in series [2] (4 hour, assayed on B. subtilis (MB-964)), greater than 99%; in [3], greater than 99%. For the same molecule, the percent inactivation is on record as 72% in [4], greater than 99% in [5], greater than 99% in [6] and greater than 99% in [7]. For the same molecule, the “Percent Inactivation After Incubation With Cell-Free Extract” value in series [8] (setting [31]) was determined as 96%.
Consider `CO[C@@]1(NC(=O)CCC[C@@H](N)C(=O)O)C(=O)N2C(C(=O)O)=C(COC(N)=O)CS[C@@H]21` [Disodium Salt of 842A], for which the zone of inhibition at 100 µg/mL worked out at 18 mm in series [9]; 27 mm in series [1]; 27 mm in series [10]; 22 mm in series [11]; 18 mm in series [12].
Turning to `CO[C@@]1(NC(=O)CCC[C@@H](N)C(=O)O)C(=O)N2C(C(=O)O)=C(CSc3nc(C)cs3)CS[C@@H]21` [7β-(D-5-amino-5-carboxyvaleramido)-3-(4-methylthiazol-2-ylmercaptomethyl)-7-methoxy-3-cephem-4-carboxylic acid], the results for the zone of inhibition at 100 µg/mL in [9], in [11] and in series [12] were 14 mm, 13.5 mm and 20 mm, respectively.
Consider `CO[C@@]1(NC(=O)CCC[C@@H](N)C(=O)O)C(=O)N2C(C(=O)O)=C(COC(N)=O)CS[C@@H]21`, for which the IC (25 mm zone) in [12] (MB1272, read-out: concentration giving a 25 mm zone, Vibrio percolans) was determined as 8 µg/mL.
`CC(=O)OCC1=C(C(=O)O)N2C(=O)[C@@H](NC(=O)Cc3cccs3)[C@H]2SC1` [Cephalothin]: in series [13], the “ED50 (average of Two Trials)” value is listed as > 20,000 μg. In [14], the protection result was “failed to protect”. Further, in [8] (setting [31]), the “Percent Inactivation After Incubation With Cell-Free Extract” value amounted to 66%. Also, the “Antibiotic Activity Remaining” value amounted to 140 µg/mL in series [8] (setting [32]) and 85 µg/mL in [8] (setting [33]).
For the molecule `O=C(Cc1cccs1)N[C@@H]1C(=O)N2C(C(=O)[O-])=C(C[n+]3ccccc3)CS[C@H]12` [Cephaloridine], the “ED50 (average of Two Trials)” value in series [13] is recorded as 9,270 μg. Besides, the protection entry in [14] is “failed to protect”. Besides, the “Antibiotic Activity Remaining” value in [8] (setting [32]) and in series [8] (setting [33]) was less than 10 µg/mL throughout. Besides, the “Percent Inactivation After Incubation With Cell-Free Extract” value in series [8] (bacterial culture filtrate, 2 h) amounted to 96%.
With `CO[C@@]1(NC(=O)CCC[C@@H](N)C(=O)O)C(=O)N2C(C(=O)O)=C(CSC(=N)N)CS[C@@H]21` [S-[7β-(D-5-amino-5-carboxyvaleramido)-4-carboxy-7-methoxy-3-cephem-3-yl-methyl]thiouronium], the zone of inhibition at 100 µg/mL came out at 17 mm in [1], 23 mm in series [10], 22 mm in [11] and 27 mm in [12].
On to `CO[C@@]1(NC(=O)CCC[C@@H](N)C(=O)O)C(=O)N2C(C(=O)O)=C(CN)CS[C@@H]21` [7β-(D-5-amino-5-carboxyvaleramido)-3-(aminomethyl)-7-methoxy-3-cephem-4-carboxylic acid], for which the zone of inhibition at 100 µg/mL in series [10] and in series [11] was 21 mm throughout. Also, the zone of inhibition at 5 µg/mL in [12] (MB1272, read-out: disc zone size, 5γ/ml) was determined as 20 mm.
With `CO[C@@]1(NC(=O)CCC[C@@H](N)C(=O)O)C(=O)N2C(C(=O)O)=C(COC(N)=O)CS[C@@H]21` [Free Acid], the zone of inhibition at 166 µg/mL was determined as 7 mm in [15]; 23 mm in series [16]; 7 mm in [17]; 24 mm in series [18]; 7 mm in series [19]; 22 mm in [20]. Further, the zone of inhibition at 166 µg/mL came out at 11 mm in [21]; 17 mm in series [22]; 10 mm in series [23]; 7 mm in series [24]; 17 mm in [25]; 30 mm in series [26]. For the same molecule, the zone of inhibition at 166 µg/mL turned out to be 14 mm in [27]; 16 mm in series [28]; 29 mm in series [29] (0.1 M phosphate buffer pH 7, 25 °C); 22 mm in series [29] (0.1 M phosphate buffer pH 9, 25 °C); 22 mm in series [29] (human blood plasma 20%, 25 °C); 27 mm in series [30].
